Laboratory results published in patent publication US9695155B2, “Herbicidal substituted pyrimidinyloxy benzene compounds” (E. I. DU PONT DE NEMOURS AND COMPANY, priority 2013, dated 2017).

Columns and labels:
ragweed = test: Test C postemergence; type: in vivo, Ambrosia elatior; conditions: for Plant response rating, Ragweed / Ragweed plant response rating: scale 0 to 100 (0 no effect, 100 complete control)
How it was run: (§1)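 Visual injury score versus untreated controls, 0 = no effect, 100 = complete control, taken 13 to 15 days after treatment in the greenhouse. Pre-emergence pots held loam/sand; post-emergence plants grew in sphagnum peat/vermiculite mix and were sprayed at the 1- to 4-leaf stage.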

galium = test: Test C postemergence; type: in vivo, Galium aparine; conditions: for Plant response rating, Galium / Galium plant response rating: scale 0 to 100 (0 no effect, 100 complete control)
How it was run: as §1

wild oat = test: Test C postemergence; type: in vivo, Avena fatua; conditions: for Plant response rating, Oat, Wild / Oat, Wild plant response rating: scale 0 to 100 (0 no effect, 100 complete control)
How it was run: as §1

corn [1] = test: Test A preemergence; type: in vivo, Zea mays; conditions: for Corn plant response rating: 500 g ai/ha
How it was run: (§2)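 Greenhouse pot test, loam/sand soil. Formulation: non-phytotoxic solvent mix plus surfactant. Pre: directed spray onto soil after sowing. Post: plants at 1–2 leaf, 2–10 cm. Rated visually vs untreated controls at ~10 d, 0 (no effect) to 100 (complete control).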

waterhemp = test: Test C postemergence; type: in vivo, Amaranthus rudis; conditions: for Plant response rating, Waterhemp / Waterhemp plant response rating: scale 0 to 100 (0 no effect, 100 complete control)
How it was run: as §1

barnyardgrass [2] = test: Test A postemergence; type: in vivo, Echinochloa crus-galli
How it was run: as §2

yellow nutsedge = test: Test C postemergence; type: in vivo, Cyperus esculentus; conditions: for Plant response rating, Nutsedge, Yellow / Nutsedge, Yellow plant response rating: scale 0 to 100 (0 no effect, 100 complete control)
How it was run: as §1

barnyardgrass [3] = test: Test C postemergence; type: in vivo, Echinochloa crus-galli; conditions: for Plant response rating, Barnyardgrass / Barnyardgrass plant response rating: scale 0 to 100 (0 no effect, 100 complete control)
How it was run: as §1

corn [4] = test: Test A postemergence; type: in vivo, Zea mays
How it was run: as §2

wheat, winter = test: Test C postemergence; type: in vivo, Triticum aestivum; conditions: for Plant response rating, Wheat / Wheat plant response rating: scale 0 to 100 (0 no effect, 100 complete control)
How it was run: as §1

[5] = Postemergence, 31 g ai/ha, 13 to 15 days
[6] = 125 g ai/ha, 0 to 100 scale where 0 is no effect and 100 is complete control
[7] = 500 g ai/ha, 0 to 100 scale, 0 no effect, 100 complete control
[8] = 16 g ai/ha, postemergence, 0 is no effect, 100 is complete control
[9] = 31 g ai/ha, postemergence, visual rating, 13 to 15 days
[10] = 125 g ai/ha, postemergence, visual rating
[11] = Postemergence, 62 g ai/ha, 13 to 15 days
[12] = 0 to 100 scale where 0 is no effect and 100 is complete control
[13] = 500 g ai/ha, 0 to 100 scale where 0 is no effect and 100 is complete control

N#Cc1cccc(Oc2ncc(Br)cn2)c1-n1cc(Br)cn1 [Compound 57]
Plant response rating (0 to 100), Ragweed (ragweed; 125 g ai/ha, postemergence): 55
Plant response rating (0 to 100), Ragweed (ragweed; 250 g ai/ha, postemergence): 65
Plant response rating, Ragweed (ragweed; [5]): 35
Plant response rating, Ragweed (ragweed; Postemergence, 62 g ai/ha): 40
Plant response rating (0 to 100), Galium (galium; 125 g ai/ha, postemergence): 70
Plant response rating (0 to 100), Galium (galium; 250 g ai/ha, postemergence): 95
Plant response rating, Galium (galium; [5]): 50
Plant response rating, Galium (galium; Postemergence, 62 g ai/ha): 50
Plant response rating (0 to 100), Oat, Wild (wild oat; 125 g ai/ha, postemergence): 30
Plant response rating (0 to 100), Oat, Wild (wild oat; 250 g ai/ha, postemergence): 35
Plant response rating, Oat, Wild (wild oat; [5]): 10
Plant response rating, Oat, Wild (wild oat; Postemergence, 62 g ai/ha): 15
Plant response rating, Corn (corn [1]; [6]): 0
Corn plant response rating (corn [1]; 0 to 100 scale, 0 no effect, 100 complete control, approx. 10 days): 70
Plant response rating (0 to 100), Waterhemp (waterhemp; 125 g ai/ha, postemergence): 80
Plant response rating (0 to 100), Waterhemp (waterhemp; 250 g ai/ha, postemergence): 90
Plant response rating, Waterhemp (waterhemp; [5]): 75
Plant response rating, Waterhemp (waterhemp; Postemergence, 62 g ai/ha): 80
Plant response rating, Barnyardgrass (barnyardgrass [2]; [6]): 90
Plant response rating, Barnyardgrass (barnyardgrass [2]; [7]): 100
Plant response rating (0 to 100), Nutsedge, Yellow (yellow nutsedge; 125 g ai/ha, postemergence): 5
Plant response rating (0 to 100), Nutsedge, Yellow (yellow nutsedge; 250 g ai/ha, postemergence): 15
Plant response rating, Nutsedge, Yellow (yellow nutsedge; [5]): 5
Plant response rating, Nutsedge, Yellow (yellow nutsedge; Postemergence, 62 g ai/ha): 5
Plant response rating (0 to 100), Barnyardgrass (barnyardgrass [3]; 125 g ai/ha, postemergence): 10
Plant response rating (0 to 100), Barnyardgrass (barnyardgrass [3]; 250 g ai/ha, postemergence): 15
Plant response rating, Barnyardgrass (barnyardgrass [3]; [5]): 5
Plant response rating, Barnyardgrass (barnyardgrass [3]; Postemergence, 62 g ai/ha): 10
Plant response rating, Corn (corn [4]; [6]): 30
Plant response rating, Corn (corn [4]; [7]): 90
Plant response rating (0 to 100), Wheat (wheat, winter; 125 g ai/ha, postemergence): 10
Plant response rating (0 to 100), Wheat (wheat, winter; 250 g ai/ha, postemergence): 15
Plant response rating, Wheat (wheat, winter; [5]): 0
Plant response rating, Wheat (wheat, winter; Postemergence, 62 g ai/ha): 5

Clc1cnc(Oc2cccc(Br)c2-n2cc(Cl)cn2)nc1 [Compound 221]
Plant response rating (0 to 100), Ragweed (ragweed; [8]): 5
Ragweed plant response rating (ragweed; [9]): 5
Plant response rating, Ragweed (ragweed; [10]): 10
Plant response rating, Ragweed (ragweed; [11]): 20
Plant response rating (0 to 100), Galium (galium; [8]): 60
Galium plant response rating (galium; [9]): 55
Plant response rating, Galium (galium; [10]): 90
Plant response rating, Galium (galium; [11]): 55
Plant response rating (0 to 100), Oat, Wild (wild oat; [8]): 5
Oat, Wild plant response rating (wild oat; [9]): 5
Plant response rating, Oat, Wild (wild oat; [10]): 30
Plant response rating, Oat, Wild (wild oat; [11]): 10
Corn plant response rating (0 to 100 scale) (corn [1]; 125 g ai/ha): 0
Corn plant response rating (corn [1]; [12]): 0
Plant response rating (0 to 100), Waterhemp (waterhemp; [8]): 65
Waterhemp plant response rating (waterhemp; [9]): 70
Plant response rating, Waterhemp (waterhemp; [10]): 80
Plant response rating, Waterhemp (waterhemp; [11]): 80
Barnyardgrass plant response rating (barnyardgrass [2]; [6]): 50
Plant response rating, Barnyardgrass (barnyardgrass [2]; [13]): 100
Plant response rating (0 to 100), Nutsedge, Yellow (yellow nutsedge; [8]): 0
Nutsedge, Yellow plant response rating (yellow nutsedge; [9]): 0
Plant response rating, Nutsedge, Yellow (yellow nutsedge; [10]): 10
Plant response rating, Nutsedge, Yellow (yellow nutsedge; [11]): 5
Plant response rating (0 to 100), Barnyardgrass (barnyardgrass [3]; [8]): 5
Barnyardgrass plant response rating (barnyardgrass [3]; [9]): 5
Plant response rating, Barnyardgrass (barnyardgrass [3]; [10]): 10
Plant response rating, Barnyardgrass (barnyardgrass [3]; Postemergence, 62 g ai/ha): 5
Corn plant response rating (corn [4]; [6]): 10
Plant response rating, Corn (corn [4]; [13]): 50
Plant response rating (0 to 100), Wheat (wheat, winter; [8]): 0
Wheat plant response rating (wheat, winter; [9]): 0
Plant response rating, Wheat (wheat, winter; [10]): 0
Plant response rating, Wheat (wheat, winter; [11]): 0

Clc1cnc(Oc2cccc(Cl)c2-n2cc(Cl)cn2)nc1 [Compound 220]
Plant response rating (0 to 100), Ragweed (ragweed; [8]): 10
Ragweed plant response rating (ragweed; [9]): 10
Plant response rating, Ragweed (ragweed; [10]): 25
Plant response rating, Ragweed (ragweed; [11]): 15
Plant response rating (0 to 100), Galium (galium; [8]): 50
Galium plant response rating (galium; [9]): 70
Plant response rating, Galium (galium; [10]): 95
Plant response rating, Galium (galium; [11]): 80
Plant response rating (0 to 100), Oat, Wild (wild oat; [8]): 5
Oat, Wild plant response rating (wild oat; [9]): 25
Plant response rating, Oat, Wild (wild oat; [10]): 50
Plant response rating, Oat, Wild (wild oat; [11]): 35
Corn plant response rating (0 to 100 scale) (corn [1]; 125 g ai/ha): 0
Corn plant response rating (corn [1]; [12]): 10
Plant response rating (0 to 100), Waterhemp (waterhemp; [8]): 65
Waterhemp plant response rating (waterhemp; [9]): 70
Plant response rating, Waterhemp (waterhemp; [10]): 85
Plant response rating, Waterhemp (waterhemp; [11]): 75
Barnyardgrass plant response rating (barnyardgrass [2]; [6]): 90
Plant response rating, Barnyardgrass (barnyardgrass [2]; [13]): 100
Plant response rating (0 to 100), Nutsedge, Yellow (yellow nutsedge; [8]): 10
Nutsedge, Yellow plant response rating (yellow nutsedge; [9]): 0
Plant response rating, Nutsedge, Yellow (yellow nutsedge; [10]): 5
Plant response rating, Nutsedge, Yellow (yellow nutsedge; [11]): 0
Plant response rating (0 to 100), Barnyardgrass (barnyardgrass [3]; [8]): 5
Barnyardgrass plant response rating (barnyardgrass [3]; [9]): 10
Plant response rating, Barnyardgrass (barnyardgrass [3]; [10]): 15
Plant response rating, Barnyardgrass (barnyardgrass [3]; Postemergence, 62 g ai/ha): 10
Corn plant response rating (corn [4]; [6]): 40
Plant response rating, Corn (corn [4]; [13]): 70
Plant response rating (0 to 100), Wheat (wheat, winter; [8]): 0
Wheat plant response rating (wheat, winter; [9]): 0
Plant response rating, Wheat (wheat, winter; [10]): 0
Plant response rating, Wheat (wheat, winter; [11]): 0

FC(F)c1cnn(-c2c(Br)cccc2Oc2ncc(Cl)cn2)c1 [Compound 232]
Plant response rating (0 to 100), Ragweed (ragweed; [8]): 25
Ragweed plant response rating (ragweed; [9]): 35
Plant response rating, Ragweed (ragweed; [10]): 60
Plant response rating, Ragweed (ragweed; [11]): 50
Plant response rating (0 to 100), Galium (galium; [8]): 65
Galium plant response rating (galium; [9]): 70
Plant response rating, Galium (galium; [10]): 95
Plant response rating, Galium (galium; [11]): 80
Plant response rating (0 to 100), Oat, Wild (wild oat; [8]): 0
Oat, Wild plant response rating (wild oat; [9]): 0
Plant response rating, Oat, Wild (wild oat; [10]): 20
Plant response rating, Oat, Wild (wild oat; [11]): 5
Corn plant response rating (0 to 100 scale) (corn [1]; 125 g ai/ha): 0
Corn plant response rating (corn [1]; [12]): 60
Plant response rating (0 to 100), Waterhemp (waterhemp; [8]): 65
Waterhemp plant response rating (waterhemp; [9]): 65
Plant response rating, Waterhemp (waterhemp; [10]): 85
Plant response rating, Waterhemp (waterhemp; [11]): 70
Barnyardgrass plant response rating (barnyardgrass [2]; [6]): 30
Plant response rating, Barnyardgrass (barnyardgrass [2]; [13]): 90
Plant response rating (0 to 100), Nutsedge, Yellow (yellow nutsedge; [8]): 5
Nutsedge, Yellow plant response rating (yellow nutsedge; [9]): 5
Plant response rating, Nutsedge, Yellow (yellow nutsedge; [10]): 5
Plant response rating, Nutsedge, Yellow (yellow nutsedge; [11]): 5
Plant response rating (0 to 100), Barnyardgrass (barnyardgrass [3]; [8]): 10
Barnyardgrass plant response rating (barnyardgrass [3]; [9]): 5
Plant response rating, Barnyardgrass (barnyardgrass [3]; [10]): 20
Plant response rating, Barnyardgrass (barnyardgrass [3]; Postemergence, 62 g ai/ha): 10
Corn plant response rating (corn [4]; [6]): 30
Plant response rating, Corn (corn [4]; [13]): 90
Plant response rating (0 to 100), Wheat (wheat, winter; [8]): 0
Wheat plant response rating (wheat, winter; [9]): 0
Plant response rating, Wheat (wheat, winter; [10]): 5
Plant response rating, Wheat (wheat, winter; [11]): 0
